Measured values as given in patent US6042841A, “Cosmetic method of treating skin” (Unilever Home & Personal Care USA Division of Conopco, Inc., priority 1998, dated 2000).

Columns and labels:
Format in all cases: cell-based
[1] = tested on: ICAM; assay: ICAM-1 assay, PMA-induced ICAM production in human skin fibroblasts; conditions: for ICAM: N 4, p < 0.001 vs PMA-treated
Experimental: Intracellular adhesion molecules (ICAM) and PEG2 production by human skin fibroblasts can be induced by the inflammatory stimulus PMA (phorbal myristate acetate). PMA represents an external stressor which induces oxidative stress and inflammatory responses in cells. This model is used to model inflammation in vivo.
Primary human foreskin fibroblasts at passage 2 (P2) were seeded into 96-well plates at 10000 cells/well and maintained for 24 hours in an atmosphere of 5% carbon dioxide in Dulbeccos Modified Eagles Medium (DMEM) supplemented with 10% foetal calf serum. […] Phorbal myristate acetate (PMA) (Sigma) was added to the media and the cells incubated for a further 24 hours. […] The fibroblasts/media were then analysed as described below immediately or snap frozen in liquid nitrogen and stored at -70° C. for future analysis. The cells were then counted and data from the dot-blot analysis subsequently standardised to cell number.
ICAM-1 assay: Media were discarded and cells washed with Dulbecco PBS. To the washed cells, 150 μl 0.1% Triton X-100 (Sigma) was added for 3 minutes to extract ICAM from cell membrane. The extracts were transferred to Eppendoff centrifuge tubes and centrifuged at 1000 g for 2 min to remove cell debris. A volume of 100 μl supernatant was used for ICAM assay. The soluble ICAM-1 was assessed with commercially available immunoenzymometric assay kit (R&D Systems). Concentrations of ICAM-1 in the samples were determined based on parallelly running standard curve.

[2] = tested on: PGE2; assay: Keratinocyte PGE2 assay (basal release); conditions: 0.1 and 1 μM; 1 way ANOVA, p<0.05
Experimental: This was then replaced with KGM without hydrocortisone for 24-48 hours. No petroselinic acid was added to the control cells. […] At the end of the incubation the medium was harvested and assayed for the basal release of the pro-inflammatory PGE2 by enzyme-linked immuno assay using a commercial PGE2 kit (Amersham, Buckinghamshire, England).
The anti-inflammatory potential of the test compounds were assessed by the ability of the compounds to reduce the basal levels of secreted PGE2 as compared to the control. […]

[3] = tested on: keratinocytes; assay: Keratinocyte viability by neutral red up-take in PGE2 assay; conditions: at the concentrations tested
Experimental: (§1) After incubating for 24 hours the medium was removed and the viability determined by the Neutral Red method.
The cells were then tested for viability by the neutral red up-take method described in example 2 above.

[4] = tested on: keratinocytes; assay: Keratinocyte SDS viability assay (Neutral Red); conditions: vs 2 μg/ml SDS alone; 1 way ANOVA, p<0.05
Experimental: as §1

[5] = tested on: B16-F1 mouse melanoma cells; assay: Pigmentation assay (melanin in media)
Experimental: B16-F1 mouse melanoma cells (American Type Culture Collection, Maryland, USA) were maintained in 75 cm^2 culture flasks in RPMI 1640 medium (ICN-Flow, cat. no. 12-60-54) supplemented with L-glutamine (4 mM) and 10% foetal bovine serum (FBS) at 37° C. in a water saturated, 5% CO2 in air atmosphere. Cells were passaged twice weekly.
Subconfluent B16 cells were seeded in 96 well microtiter plates at a density of 5000 cells/well and cultured overnight in DMEM (Life Technologies, NY) containing 10% foetal bovine serum and 1% penicillin/streptomycin without phenol red at 37° C. under 5% CO2. After 24 hours, the media was replaced with fresh media containing the test materials or vehicle controls. Cells were incubated for 72 hours at which time melanin was visible in the control wells. Next, the melanin containing media from each well was transferred to a clean 96 well plate and quantified by reading the absorbance at 530 nm using a microplate spectrophotometer (Dynatech MR5000) and correcting for the baseline absorption of fresh medium. As the corrected absorption is proportional to the melanin concentration the percentage pigmentation for a skin lightening test substance can be calculated as: […]
where OD530 test and OD530 ref indicate the average corrected absorption of the medium from the wells with the test substance and that of the medium from the wells without the test substance. The percentage inhibition caused by the test substance is then 100 - % pigmentation.

CCCCCCCCCCC/C=C\CCCCC(=O)O [Petroselinic Acid, petroselinic acid]
ICAM ([1]; PMA + PA (0.1 uM)): 8.64 ± 0.89 ng/mL
ICAM ([1]; PMA + PA (1 uM)): 7.71 ± 0.66 ng/mL
ICAM ([1]; PMA + PA (10 uM)): 7.39 ± 0.14 ng/mL
ICAM ([1]; PMA + PA (100 uM)): 6.68 ± 1.35 ng/mL
production of ICAM (in words) ([1]; PMA-challenged): decreases the production
release of PGE2 from unstimulated keratinocytes (in words) [2]: significantly (p<0.05) reduced
Cell viability of keratinocytes (in words) [3]: not found to be adversely effected
Keratinocyte viability vs SDS alone (in words) [4]: significantly increased viability
melanin production (in words) [5]: inhibits melanin production
activity at 0.01 % ([5]; Mus musculus, B16-F1, 0.01%, 72 hours, n = 4, ** (0.000)): 79.5%
activity at 0.013 % ([5]; Mus musculus, B16-F1, 0.013%, 72 hours, n = 4, ** (0.000)): 40.4%
activity at 0.02 % ([5]; Mus musculus, B16-F1, 0.02%, 72 hours, n = 4, ** (0.000)): 55.3%
activity at 0.04 % ([5]; Mus musculus, B16-F1, 0.04%, 72 hours, n = 4, ** (0.000)): 3.9%
activity at 0.1 % ([5]; Mus musculus, B16-F1, 0.1%, 72 hours, n = 4, ** (0.000)): 19.3%
